Laboratory results reported in paper PMC6399351, “Cationic Intrinsically Disordered Antimicrobial Peptides (CIDAMPs) Represent a New Paradigm of Innate Defense with a Potential for Novel Anti-Infectives” (Scientific Reports, 2019).
Values after ≈ are worked out from the molar mass of the structure shown. Values joined by “and” are separate entries in the source; they are usually repeats but may differ in a detail not shown here. Identical values can stand only once. Like-named read-outs stand apart in the source and are kept apart here. Peptide text beside a SMILES is read from it. * marks the point of attachment. Palmitoyl = CCCCCCCCCCCCCCCC(=O)*

Experiments:
[1] = system: S. aureus ATCC 6538; details: CFU assay
[2] = system: Propionibacterium acnes ATCC 6919; experiment: CFU assay of antimicrobial activity; type: cell-based; details: 10 mM NaP
Method: (§1) All purified peptides and recombinant proteins were applied using a colony forming unit (CFU) assay in different media. Bacteria were grown to early log-phase in BHI, washed either with 10 mM Na-P, pH 7.4/1% TSB or pH 5.5/1% TSB, or pH 5.5 without TSB or BHI, and adjusted to a concentration of 10^4–10^5 colony forming units (CFU)/ml. For cell number control, 100 µl aliquots were diluted 1:10, 1:100 and 1:1000 and plated in duplicates on BHI agar plates. To 100 µl aliquots of the bacteria, suspended in the respective medium (10 mM Na-P buffer pH 7,0–7,4/ 1% (w/v) TSB; 10 mM Na-P buffer pH 5,5/ 1% (w/v) TSB; 10 mM Na-P buffer pH 7,0–7,4/ 1% (w/v) TSB pH 7,0–7,4/ 0,25% (w/v) glucose; 10 mM Na-P buffer pH 5,5/ 0,25% (w/v) glucose, respectively), 10 µl of a solution of the peptide or protein (two-fold dilutions, from 300 µg/ml or 150 µg/ml down to 19 ng/ml), dissolved in 0.01% (v/v) acetic acid, were added.
(§2) Then bacteria were incubated for 2 h at ambient temperature, if not otherwise stated. 10 µl of 0.01% (v/v) acetic acid, added to 100 µl aliquots of the bacteria in the respective medium, served as negative control. From each test, 1:10 and 1:100 dilutions were generated and plated as duplicates of 100 µl aliquots on BHI agar plates. After 16 h incubation at 37 °C, CFU were counted using a colony counter (Bio Kobe, Japan) and expressed as mean of the duplicate estimation to achieve a complete dose-response curve. All experiments were performed at serial dilutions in a concentration range of 100 µg/mL −25 ng/mL for recombinant HRNR fragments and 300 or 150 µg/mL–19 ng/mL for synthetic peptides.

[3] = system: Lactobacillus crispatus DSM 20584; experiment: CFU assay of antimicrobial activity; type: cell-based; details: 10 mM NaP, pH 7.3, 1% TSB
Method: as §1, §2

[4] = system: Salmonella typhimurium ATCC 13311; experiment: CFU assay of antimicrobial activity; type: cell-based; details: 10 mM NaP, pH 7.3, 1% TSB
Method: as §1, §2

[5] = system: Staphylococcus epidermidis ATCC 14990; experiment: CFU assay of antimicrobial activity; type: cell-based; details: 10 mM NaP
Method: as §1, §2

[6] = system: Klebsiella pneumonia ATCC 700603; details: MDR strain; CLSI, Mueller–Hinton broth, 5 × 10^5 CFU/mL, 18 h 37 °C, by CO-ADD
[7] = system: Klebsiella pneumoniae ATCC 13883; details: CFU assay, 10 mM NaP
[8] = system: Staphylococcus aureus ATCC 43300; details: MRSA; CLSI, Mueller–Hinton broth, 5 × 10^5 CFU/mL, 18 h 37 °C, by CO-ADD
[9] = system: Burkholderia cepacia ATCC 25416; details: CFU assay, 10 mM NaP
[10] = system: Cryptococcus neoformans ATCC 208821; experiment: CO-ADD MIC, antifungal assay (CLSI); type: cell-based; details: Yeast Nitrogen Base broth, 24 h 35 °C, by CO-ADD
Method: (§3) Fungi strains were cultured for 3 days on Yeast Extract-Peptone Dextrose (YPD) agar at 30 °C. A yeast suspension of 1 × 10^6 to 5 × 10^6 cells/mL (as determined by OD530) was prepared from five colonies. These stock suspensions were diluted with Yeast Nitrogen Base (YNB) broth to a final concentration of 2.5 × 10^3 CFU/mL. […] Plates were covered and incubated at 35 °C for 24 h without shaking.

[11] = system: Candida albicans ATCC 90028; experiment: CO-ADD MIC, antifungal assay (CLSI); type: cell-based; details: Yeast Nitrogen Base broth, 24 h 35 °C, by CO-ADD
Method: as §3

[12] = system: E. coli ATCC 11775; experiment: CFU assay of antimicrobial activity; type: cell-based, Escherichia coli; details: 10 mM NaP
In short: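 Early log-phase bacteria grown in BHI were exposed at 10^4–10^5 CFU/ml for 2 h at ambient temperature. Two-fold serial dilutions spanned 300 or 150 µg/mL–19 ng/mL (synthetic peptides) or 100 µg/mL–25 ng/mL (recombinant HRNR fragments), and colonies were counted after 16 h at 37 °C.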

[13] = system: Staphylococcus hominis ATCC 27844; details: CFU assay, 10 mM NaP, pH 7.3, 1% TSB
[14] = system: Corynebacterium simulans DSM 44415; experiment: CFU assay of antimicrobial activity; type: cell-based; details: 10 mM NaP, pH 7.3, 1% TSB
Method: All purified peptides and recombinant proteins were applied using a colony forming unit (CFU) assay in different media. Bacteria were grown to early log-phase in BHI, washed either with 10 mM Na-P, pH 7.4/1% TSB or pH 5.5/1% TSB, or pH 5.5 without TSB or BHI, and adjusted to a concentration of 10^4–10^5 colony forming units (CFU)/ml. For cell number control, 100 µl aliquots were diluted 1:10, 1:100 and 1:1000 and plated in duplicates on BHI agar plates. […]
as §2

[15] = system: Prevotella oralis ATCC 33321; experiment: CFU assay of antimicrobial activity; type: cell-based; details: 10 mM NaP, pH 7.3, 1% TSB
Method: as §1, with “[…],” for “10 mM Na-P buffer pH 5,5/ 0,25% (w/v) glucose,”
as §2

[16] = system: P. aeruginosa ATCC 10145; details: CFU assay, 10 mM NaP

How did the LD90 ([1]; 10 mM NaP, pH 5.5, 0.25% glucose) turn out when CCCCCCCCCCCCCCCC(=O)NCC(=O)N[C@@H](CCCNC(=N)N)C(=O)N[C@@H](CCCNC(=N)N)C(=O)NCC(=O)NCC(=O)N[C@@H](CCCNC(=N)N)C(=O)NCC(=O)NCC(=O)N[C@@H](CCCNC(=N)N)C(=O)NCC(=O)N[C@@H](CCCNC(=N)N)C(=O)NCC(=O)N[C@@H](CCCNC(=N)N)C(=O)O [Pal-GR13] (Palmitoyl-GRRGGRGGRGRGR-OH) was run?
The LD90 was 0.075 µg/mL and 0.15 µg/mL.

What about the LD90 ([1]; 10 mM NaP, pH 5.5, 1% TSB) of the same compound?
The LD90 was 0.3 µg/mL.

What about the LD90 ([1]; 10 mM NaP, pH 7.3, 1% TSB) of the same compound?
The LD90 was 0.3 µg/mL.

And the LD90 ([1]; value in molar units)?
The LD90 was 47 nM.

What about the LD90 ([2]; pH 5.5, 0.25% glucose) of the same compound?
Its LD90 is 0.3 µg/mL.

And the LD90 ([2]; pH 7.3, 0.25% glucose)?
Its LD90 is 0.59 µg/mL.

What about the LD90 ([2]; pH 7.3, 1% TSB) of the same compound?
Its LD90 is 1.18 µg/mL.

What about the LD90 [3] of the same compound?
Its LD90 is 9.38 µg/mL.

And the LD90 [4]?
The LD90 was 2.35 µg/mL.

And the LD90 ([5]; pH 5.5, 0.25% glucose)?
The LD90 was 9.38 µg/mL.

What about the LD90 ([5]; pH 7.3, 1% TSB) of the same compound?
The LD90 was 0.59 µg/mL.

What about the “Minimal inhibitory concentration (MIC)” value [6] of the same compound?
Its value is ≥16 µg/mL.

And the LD90 ([7]; pH 5.5, 0.25% glucose)?
Its LD90 is 0.15 µg/mL.

And the LD90 ([7]; pH 7.3, 1% TSB)?
The LD90 was 1.18 µg/mL.

And the “Minimal inhibitory concentration (MIC)” value [8]?
The value was 0.25 µg/mL (≈ 0.157 µM).

What about the LD90 ([9]; pH 5.5, 0.25% glucose) of the same compound?
Its LD90 is >300 µg/mL.

And the LD90 ([9]; pH 7.3, 0.25% glucose)?
The LD90 was 4.7 µg/mL.

What about the LD90 ([9]; pH 7.3, 1% TSB) of the same compound?
Its LD90 is 18.75 µg/mL.

And the “Minimal inhibitory concentration (MIC)” value [10]?
The value was 0.25 µg/mL (≈ 0.157 µM).

What about the “Minimal inhibitory concentration (MIC)” value [11] of the same compound?
The value was 4 µg/mL (≈ 2.51 µM).

And the LD90 ([12]; pH 5.5, 0.25% glucose)?
Its LD90 is 0.15 µg/mL.

And the LD90 ([12]; pH 7.3, 1% TSB)?
Its LD90 is 1.18 µg/mL.

What about the LD90 [13] of the same compound?
The LD90 was 1.18 µg/mL.

What about the LD90 [14] of the same compound?
The LD90 was 0.59 µg/mL.

And the LD90 [15]?
The LD90 was 9.38 µg/mL.

And the LD90 ([16]; pH 5.5, 0.25% glucose)?
The LD90 was 0.075 µg/mL.

What about the LD90 ([16]; pH 7.3, 1% TSB) of the same compound?
The LD90 was 0.3 µg/mL.
